Source: patent publication US10681909B2, “Herbicidal triazoles” (FMC Corporation, priority 2014, dated 2020)

Legend:
velvetleaf = experiment: Test A postemergence; type: in vivo, Abutilon theophrasti; details: Abutilon theophrasti, post-emergence, 240 h, 0 to 100 scale (0 no effect, 100 complete control), approx. 10 d, read-out: Plant response rating, Velvetleaf
Summary of the method: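 Test chemicals in a non-phytotoxic solvent with surfactant were applied as a directed soil spray preemergence to seeds sown in loam/sand. Postemergence sprays went to plants 2–10 cm tall at the one- to two-leaf stage. A dash means no result.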

foxtail, giant = experiment: Test C preemergence; type: in vivo, Setaria faberii; details: for Plant response rating (scale of 0 to 100 where 0 is no effect and 100 is complete control): Foxtail, Giant, preemergence; for Foxtail, Giant plant response rating (0 to 100): Preemergence, visual rating after 13 to 15 d
Source text: (§1) Seeds of plant species selected from blackgrass (Alopecurus myosuroides), ryegrass, Italian (Italian ryegrass, Lolium multiflorum), wheat (winter wheat, Triticum aestivum), galium (catchweed bedstraw, Galium aparine), corn (Zea mays), crabgrass, large (large crabgrass, Digitaria sanguinalis), foxtail, giant, (giant foxtail, Setaria faberii), johnsongrass (Sorghum halepense), lambsquarters (Chenopodium album), morningglory (Ipomoea coccinea), nutsedge, yellow (yellow nutsedge, Cyperus esculentus), pigweed (Amaranthus retroflexus), ragweed (common ragweed, Ambrosia elatior), soybean (Glycine max), barnyardgrass (Echinochloa crus-galli), oilseed rape (Brassica napus), waterhemp (common waterhemp, Amaranthus rudis), and velvetleaf (Abutilon theophrasti) were planted into a blend of loam soil and sand and treated preemergence with test chemicals formulated in a non-phytotoxic solvent mixture which included a surfactant. At the same time, plants selected from these crop and weed species and also chickweed (common chickweed, Stellaria media), oat, wild (wild oat, Avena fatua), and kochia (Kochia scoparia), were planted in pots containing Sunshine Redi-Earth® planting medium comprising spaghnum peat moss, vermiculite, starter nutrients and dolomitic limestone and treated with postemergence applications of test chemicals formulated in the same manner. Plants ranged in height from 2 to 18 cm (1- to 4-leaf stage) for postemergence treatments. […] A dash (-) response means no test result.

pigweed = experiment: Test C preemergence; type: in vivo, Amaranthus retroflexus; details: for Plant response rating (scale of 0 to 100 where 0 is no effect and 100 is complete control): Pigweed, preemergence; for Pigweed plant response rating (0 to 100): Preemergence, visual rating after 13 to 15 d
Source text: as §1

barley, spring = experiment: Test D preemergence; type: in vivo, Hordeum vulgare; details: for Plant response rating: Barley, Spring: scale 0 to 100; for Plant response rating (0 to 100), Barley, Spring: 16 g ai/ha, 0 is no effect, 100 is complete control
Source text: (§2) Seeds of plant species selected from bluegrass (annual bluegrass, Poa annua), blackgrass (Alopecurus myosuroides), canarygrass (Phalaris minor), chickweed (common chickweed, Stellaria media), galium (catchweed bedstraw, Galium aparine), bromegrass, down (downy bromegrass, Bromus tectorum), Russian thistle (Salsola kali), field poppy (Papaver rhoeas), field violet (Viola arvensis), foxtail, green (green foxtail, Setaria viridis), deadnettle (henbit deadnettle, Lamium amplexicaule), ryegrass, Ital. (Italian ryegrass, Lolium multiflorum), kochia (Kochia scoparia), lambsquarters (Chenopodium album), oilseed rape (Brassica napus), pigweed (Amaranthus retroflexus), chamomile (scentless chamomile, Matricaria inodora), speedwell (bird's-eye speedwell, Veronica persica), barley, spring (spring barley, Hordeum vulgare), wheat, spring (spring wheat, Triticum aestivum), buckwheat, wild (wild buckwheat, Polygonum convolvulus), wild mustard (Sinapis arvensis), oat, wild (wild oat, Avena fatua), radish, wild (wild radish, Raphanus raphanistrum), […]), barley, winter (winter barley, Hordeum vulgare), and wheat, winter (winter wheat, Triticum aestivum) were planted into a silt loam soil and treated preemergence with test chemicals formulated in a non-phytotoxic solvent mixture which included a surfactant. At the same time, these species were planted in pots containing Sunshine Redi-Earth® planting medium comprising spaghnum peat moss, vermiculite, starter nutrients and dolomitic limestone and treated with postemergence applications of the test chemicals formulated in the same manner. Plants ranged in height from 2 to 18 cm (1- to 4-leaf stage). Treated plants and controls were maintained in a controlled growth environment for 14 to 21 d after which time all species were compared to controls and visually evaluated. […] A dash (-) response means no test result.

barley, winter = experiment: Test D preemergence; type: in vivo, Hordeum vulgare; details: for Plant response rating: Barley, Winter: scale 0 to 100; for Plant response rating (0 to 100), Barley, Winter: 16 g ai/ha, 0 is no effect, 100 is complete control
Source text: as §2

wild mustard = experiment: Test D preemergence; type: in vivo, Sinapis arvensis; details: for Plant response rating: Mustard, Wild: scale 0 to 100; for Plant response rating (0 to 100), Mustard, Wild: 16 g ai/ha, 0 is no effect, 100 is complete control
Source text: as §2

ragweed = experiment: Test A postemergence; type: in vivo, Ambrosia elatior; details: 0 to 100 scale (0 no effect, 100 complete control), approx. 10 d
Summary of the method: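 Ratings reflect visual injury after ~10 d in greenhouse, 0 = no effect, 100 = complete control. Postemergence treatment was applied to one- to two-leaf seedlings; preemergence treatment was a directed soil spray at planting.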

Structure (SMILES)	Plant response rating (scale of 0 to 100 where 0 is no effect and 100 is complete control) (foxtail, giant; 125 g ai/ha)	Plant response rating (scale of 0 to 100 where 0 is no effect and 100 is complete control) (foxtail, giant; 250 g ai/ha)	Foxtail, Giant plant response rating (0 to 100) (foxtail, giant; 31 g ai/ha)	Foxtail, Giant plant response rating (0 to 100) (foxtail, giant; 62 g ai/ha)	Plant response rating (scale of 0 to 100 where 0 is no effect and 100 is complete control) (pigweed; 125 g ai/ha)	Plant response rating (scale of 0 to 100 where 0 is no effect and 100 is complete control) (pigweed; 250 g ai/ha)	Pigweed plant response rating (0 to 100) (pigweed; 31 g ai/ha)	Pigweed plant response rating (0 to 100) (pigweed; 62 g ai/ha)	Plant response rating: Barley, Spring (barley, spring; 31 g ai/ha)	Plant response rating: Barley, Spring (barley, spring; 62 g ai/ha)	Plant response rating: Barley, Spring (barley, spring; 125 g ai/ha)	Plant response rating: Barley, Winter (barley, winter; 31 g ai/ha)	Plant response rating: Barley, Winter (barley, winter; 62 g ai/ha)	Plant response rating: Barley, Winter (barley, winter; 125 g ai/ha)	Plant response rating: Mustard, Wild (wild mustard; 62 g ai/ha)	Plant response rating: Mustard, Wild (wild mustard; 125 g ai/ha)	Plant response rating, Ragweed (ragweed; 125 g ai/ha)	Plant response rating, Ragweed (ragweed; 500 g ai/ha)	Plant response rating (0 to 100), Barley, Spring (barley, spring)	Plant response rating (0 to 100), Barley, Winter (barley, winter)	further results
CCOc1nc(-c2ccc(F)cc2)nn1Cc1ccnc(C(F)(F)F)c1 [Compound 8, 4-[[5-ethoxy-3-(4-fluorophenyl)-1H-1,2,4-triazol-1-yl]methyl]-2-(trifluoromethyl)pyridine]	100	100	100	100	100	100	100	100	5	20	45	5	25	35	100	100					pest or weed control at 125 g/ha (velvetleaf; 125 g ai/ha): 90%; pest or weed control at 500 g/ha (velvetleaf; 500 g ai/ha): 100%; Plant response rating: Barley, Spring (barley, spring; 250 g ai/ha): 60; Plant response rating: Barley, Winter (barley, winter; 250 g ai/ha): 45; Plant response rating: Mustard, Wild (wild mustard; 250 g ai/ha): 100
FC(F)(F)COc1nc(-c2ccccc2)nn1Cc1ccnc(C(F)(F)F)c1 [Compound 24]	98	100	80	95	100	100	100	100	25	30	35	15	25	25	100	100	50	70	20	15	Plant response rating (0 to 100), Mustard, Wild (wild mustard): 65
CCOc1nc(-c2ccccc2)nn1Cc1ccnc(C(F)(F)F)c1 [Compound 27]	100	100	100	100	100	100	100	100	25	35	35	25	30	35	100	100	50	70	25	15	Plant response rating (0 to 100), Mustard, Wild (wild mustard): 80
COc1nc(-c2ccc(Cl)cc2)nn1Cc1ccnc(C(F)(F)F)c1 [Compound 28]									20	20	25	15	20	25	100	100	20	30	15	10	Plant response rating (0 to 100), Mustard, Wild (wild mustard): 90
Fc1ccc(-c2nc(OCC(F)(F)F)n(Cc3ccnc(C(F)(F)F)c3)n2)cc1 [Compound 30]	100	100	98	100	100	100	100	100	40	35	45	25	30	40	100	100	40	70	30	20	Plant response rating (0 to 100), Mustard, Wild (wild mustard): 90
FC(F)(F)COc1nc(-c2ccc(Cl)cc2)nn1Cc1ccnc(C(F)(F)F)c1 [Compound 31]	98	100	90	95	100	100	98	100	45	45	50	35	40	50	100	100	70	80	35	25	Plant response rating (0 to 100), Mustard, Wild (wild mustard): 100
